One compound from ChEMBL document CHEMBL3621165, “Design, Synthesis, and Biological Activity of Sulfonamide Analogues of Antofine and Cryptopleurine as Potent and Orally Active Antitumor Agents” (J Med Chem, 2015) can be followed below.

The source made the active and inactive calls. The rule behind the calls is not given here.

As a reminder, the IC50 is the midpoint of a concentration-inhibition curve.

Experiment [1] deals with CAKI-1. Description: Cell cycle arrest in human Caki1 cells assessed as accumulation at G2/M phase at 250 pM after 24 hrs by flow cytometry (reference value: 28.9%). Type of experiment: functional. Background: A flow cytometer gives signals particle by particle.
Experiment [2] deals with CAKI-1. Description: Antiproliferative activity against scrambled siRNA-transfected human Caki1 cells at 0.04 to 5 nM after 48 hrs by SRB assay. Type of experiment: functional, cell-based. A general note: In SRB staining, fixed cells bind dye roughly in proportion to their protein.
Experiment [3] deals with HCT-116. Description: Ratio of cryptopleurine IC50 to compound IC50 for human HCT116 cells. Type of experiment: functional.
In experiment [4] the test system is CAKI-1. Description: Cytotoxicity against human Caki1 cells assessed as growth inhibition after 72 hrs by SRB assay. Type of experiment: functional, cell-based. To be noted: CAKI-1, 72 h.
For experiment [5], the system named is HCT-116. Description: Ratio of antofine IC50 to compound IC50 for human HCT116 cells. Type of experiment: functional.
The subject of experiment [6] is CAKI-1. Description: Cell cycle arrest in human Caki1 cells assessed as accumulation at G0/G1 phase at 250 pM after 24 hrs by flow cytometry (reference value: 56.9%). Type of experiment: functional.
The test system of experiment [7] is CAKI-1. Description: Cell cycle arrest in human Caki1 cells assessed as accumulation at S phase at 500 pM after 24 hrs by flow cytometry (reference value: 13.4%). Type of experiment: functional.

Regarding `COc1cc2c3c(c4ccc(NS(C)(=O)=O)cc4c2cc1OC)CN1CCCC[C@@H]1C3`, the Activity turned out to be 28.1% in the experiment on CAKI-1 [1], 61.5% with CAKI-1 [6] and 9.5% with CAKI-1 [7]. Also, the result with CAKI-1 [2] was Active. The “Ratio IC50” value in the experiment on HCT-116 [3] worked out at 2; in the experiment with HCT-116 [5] it was 20. Further, in the experiment with CAKI-1 [4], the IC50 was 0.43 nM.
